How the values were obtained:
Type in all cases: biochemical
MMP-2 = target: T1, MMP-2 (Homo sapiens, UniProt P08253); experiment: In vitro MMP-2 inhibition test
T1 construct: purchased R&D Systems 902-MP
T1 sequence (P08253 110-660): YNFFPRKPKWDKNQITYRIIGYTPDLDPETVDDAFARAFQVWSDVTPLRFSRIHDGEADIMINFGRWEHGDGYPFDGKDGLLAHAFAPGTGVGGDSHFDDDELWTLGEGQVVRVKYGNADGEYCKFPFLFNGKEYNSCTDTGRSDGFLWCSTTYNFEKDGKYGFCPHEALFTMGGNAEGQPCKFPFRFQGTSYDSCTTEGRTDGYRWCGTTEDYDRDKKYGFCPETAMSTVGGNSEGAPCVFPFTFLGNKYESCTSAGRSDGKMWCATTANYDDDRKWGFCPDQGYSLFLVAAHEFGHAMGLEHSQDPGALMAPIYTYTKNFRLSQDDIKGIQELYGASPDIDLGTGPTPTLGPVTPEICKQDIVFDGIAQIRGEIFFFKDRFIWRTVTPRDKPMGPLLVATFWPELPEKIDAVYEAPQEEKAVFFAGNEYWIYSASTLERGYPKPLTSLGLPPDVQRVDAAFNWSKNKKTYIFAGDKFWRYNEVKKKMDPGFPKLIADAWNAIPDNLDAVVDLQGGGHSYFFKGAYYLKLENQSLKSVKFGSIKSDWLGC
Description: (§1) The MMP-mediated amidolytic cleavage of a suitable peptide substrate leads to an increase in fluorescent light here too. The signal intensity of the fluorescent light is directly proportional to the enzyme activity. The active concentration of a test compound at which half the enzyme is inhibited (50% signal intensity of the fluorescent light) is reported as the IC50 value.
(§2) Recombinant MMP-2 (from R&D Systems, 902-MP) is chemically activated in accordance with the manufacturer's instructions using APMA. 1 μl of the test compound to be analysed (as a solution in DMSO, suitable concentrations, for example, 1 nM to 30 μM) is pipetted into 24 μl of activated enzyme (final concentration, for example, 2 nM) in reaction buffer (50 mM Tris/HCl pH 7.5, 10 mM CaCl2, 150 mM NaCl, 0.05% Brij®-35) in a white 384-hole microtiter plate (MTP). The enzymatic reaction is started by adding the intramolecularly quenched Mca-Pro-Leu-Gly-Leu-Dpa(Dnp)-Ala-Arg-NH2 substrate (final concentration, for example, 10 μM; R&D Systems, ES-001), so as to result in a total test volume of 50 μl. The course of the MMP-2 reaction is measured by measuring the fluorescence intensity (excitation 320 nm, emission 410 nm) over a suitable period of time (for example over 120 min at a temperature of 32° C.).

MMP-10 = target: T2, MMP-10 (Homo sapiens, UniProt P09238); experiment: In vitro MMP-10 inhibition test
T2 construct: purchased R&D Systems 910-MP
T2 sequence (P09238 99-476): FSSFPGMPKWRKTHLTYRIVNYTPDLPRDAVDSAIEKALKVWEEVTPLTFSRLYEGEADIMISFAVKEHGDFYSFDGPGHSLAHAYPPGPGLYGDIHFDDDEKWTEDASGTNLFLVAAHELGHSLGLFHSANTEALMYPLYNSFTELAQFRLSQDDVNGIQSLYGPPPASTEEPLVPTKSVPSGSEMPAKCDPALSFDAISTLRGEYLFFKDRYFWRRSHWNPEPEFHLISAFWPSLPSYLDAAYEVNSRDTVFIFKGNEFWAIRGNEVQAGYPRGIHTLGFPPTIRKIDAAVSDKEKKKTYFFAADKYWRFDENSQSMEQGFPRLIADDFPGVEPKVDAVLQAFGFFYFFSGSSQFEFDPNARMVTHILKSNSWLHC
Description: as §1
as §2, with “MMP-10” for “MMP-2”, “910-MP)” for “902-MP)”, “Mca-Arg-Pro-Lys-Pro-Val-Glu-Nval-Trp-Arg-Lys(Dnp)-NH2” for “Mca-Pro-Leu-Gly-Leu-Dpa(Dnp)-Ala-Arg-NH2”, “ES-002),” for “ES-001),”

mouse MMP-9 = target: T3, mouse MMP-9 (Mus musculus, UniProt P41245); experiment: In vitro mouse MMP-9 inhibition test
T3 construct: purchased R&D Systems 909-MP
T3 sequence (P41245 108-730): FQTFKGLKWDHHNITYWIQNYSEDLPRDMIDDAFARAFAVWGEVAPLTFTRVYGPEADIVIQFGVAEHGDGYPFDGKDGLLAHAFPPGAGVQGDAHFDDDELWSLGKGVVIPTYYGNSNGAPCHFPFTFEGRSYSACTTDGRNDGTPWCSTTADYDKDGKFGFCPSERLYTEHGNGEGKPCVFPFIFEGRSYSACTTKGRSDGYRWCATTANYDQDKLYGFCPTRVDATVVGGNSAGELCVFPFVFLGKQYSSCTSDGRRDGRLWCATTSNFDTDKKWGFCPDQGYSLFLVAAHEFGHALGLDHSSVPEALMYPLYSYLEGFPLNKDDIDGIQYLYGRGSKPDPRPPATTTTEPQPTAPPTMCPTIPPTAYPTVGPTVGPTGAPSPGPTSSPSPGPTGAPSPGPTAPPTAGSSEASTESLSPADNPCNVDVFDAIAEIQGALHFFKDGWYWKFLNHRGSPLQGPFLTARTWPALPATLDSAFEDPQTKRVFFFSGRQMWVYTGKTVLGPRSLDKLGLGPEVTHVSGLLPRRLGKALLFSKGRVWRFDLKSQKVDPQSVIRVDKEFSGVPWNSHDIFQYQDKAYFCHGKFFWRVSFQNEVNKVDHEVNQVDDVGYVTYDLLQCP
Description: as §1
as §2, with “Recombinant mouse MMP-9” for “Recombinant MMP-2”, “Systems, 909-MP)” for “Systems, 902-MP)”, “example, 0.1” for “example, 2”, “example, 5” for “example, 10”, “50” for “50 μl.”, “the MMP-9” for “the MMP-2”

mouse MMP-2 = target: T4, mouse MMP-2 (Mus musculus, UniProt P33434); experiment: In vitro mouse MMP-2 inhibition test
T4 construct: purchased R&D Systems 924-MP
T4 sequence (P33434 110-662): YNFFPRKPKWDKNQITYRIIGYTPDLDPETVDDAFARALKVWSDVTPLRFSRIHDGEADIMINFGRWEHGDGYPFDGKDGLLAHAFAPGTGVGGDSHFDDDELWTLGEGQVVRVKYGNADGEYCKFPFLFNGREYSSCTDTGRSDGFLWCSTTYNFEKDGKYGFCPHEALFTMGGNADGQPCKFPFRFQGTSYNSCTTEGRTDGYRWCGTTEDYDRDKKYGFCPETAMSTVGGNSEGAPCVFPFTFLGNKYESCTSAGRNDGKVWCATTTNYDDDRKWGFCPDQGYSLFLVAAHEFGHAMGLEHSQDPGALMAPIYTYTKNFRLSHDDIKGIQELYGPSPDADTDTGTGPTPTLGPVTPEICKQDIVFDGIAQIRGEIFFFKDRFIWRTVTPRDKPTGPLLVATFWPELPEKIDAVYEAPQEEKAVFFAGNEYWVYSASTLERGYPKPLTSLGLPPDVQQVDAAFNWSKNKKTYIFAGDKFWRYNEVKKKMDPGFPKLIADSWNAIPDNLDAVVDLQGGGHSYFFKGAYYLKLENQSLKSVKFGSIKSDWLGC
Description: as §1
as §2, with “Recombinant mouse” for “Recombinant”, “Systems, 924-MP)” for “Systems, 902-MP)”, “example, 0.1” for “example, 2”, “50” for “50 μl.”

Cc1ccc2nnn(C[C@@H]3CC[C@H](C(=O)c4ccc(OCc5cccc(C(F)(F)F)c5)cc4)[C@H]3C(=O)O)c(=O)c2c1 (racemic) [Example 100, (+/−)-(1RS,2SR,5RS)-2-[(6-Methyl-4-oxo-1,2,3-benzotriazin-3(4H)-yl)methyl]-5-(4-{[3-(trifluoromethyl)benzyl]oxy}benzoyl)cyclopentanecarboxylic acid]
IC50 (MMP-2): 540 nM
IC50 (MMP-10): 160 nM
IC50 (mouse MMP-9): 1100 nM
IC50 (mouse MMP-2): 890 nM

Cc1ccc2nnn(C[C@@H]3CC[C@H](C(=O)c4ccc(OCc5cccc(Cl)c5)cc4)[C@H]3C(=O)O)c(=O)c2c1 (racemic) [Example 103, (+/−)-(1RS,2RS,5SR)-2-{4-[(3-Chlorobenzyl)oxy]benzoyl}-5-[(6-methyl-4-oxo-1,2,3-benzotriazin-3(4H)-yl)methyl]cyclopentanecarboxylic acid]
IC50 (MMP-2): 370 nM
IC50 (MMP-10): 35 nM
IC50 (mouse MMP-9): 550 nM
IC50 (mouse MMP-2): 370 nM

Cc1ccc2nnn(C[C@@H]3CC[C@H](C(=O)c4ccc(OCc5cccc(OC(F)(F)F)c5)cc4)[C@H]3C(=O)O)c(=O)c2c1 (racemic) [Example 109, (+/−)-(1RS,2SR,5RS)-2-[(6-Methyl-4-oxo-1,2,3-benzotriazin-3(4H)-yl)methyl]-5-(4-{[3-(trifluoromethoxy)benzyl]oxy}benzoyl)cyclopentanecarboxylic acid]
IC50 (MMP-2): 1100 nM
IC50 (MMP-10): 100 nM
IC50 (mouse MMP-9): 910 nM
IC50 (mouse MMP-2): 1300 nM

CCCCCOc1ccc(C(=O)[C@H]2CC[C@@H](Cn3nnc4ccc(C)cc4c3=O)[C@@H]2C(=O)O)cc1 (racemic) [Example 123, (+/−)-(1RS,2SR,5RS)-2-[(6-Methyl-4-oxo-1,2,3-benzotriazin-3(4H)-yl)methyl]-5-[4-(pentyloxy)benzoyl]cyclopentanecarboxylic acid]
IC50 (MMP-2): 170 nM
IC50 (MMP-10): 81 nM
IC50 (mouse MMP-9): 770 nM
IC50 (mouse MMP-2): 370 nM

O=C(O)[C@@H]1[C@@H](Cn2nnc3ccc(C(F)(F)F)cc3c2=O)CC[C@H]1C(=O)c1ccc(OCc2cccc(Cl)c2)cc1 (single isomer, unassigned) [Example 23, (+)-(1RS,2RS,5SR)-2-{4-[(3-Chlorobenzyl)oxy]benzoyl}-5-{[4-oxo-6-(trifluoromethyl)-1,2,3-benzotriazin-3(4H)-yl]methyl}cyclopentanecarboxylic acid]
IC50 (MMP-2): 1600 nM
IC50 (MMP-10): 87 nM
IC50 (mouse MMP-9): 1700 nM
IC50 (mouse MMP-2): 2400 nM

O=C(O)[C@@H]1[C@@H](Cn2nnc3ccc(C(F)(F)F)cc3c2=O)CC[C@H]1C(=O)c1ccc(OCC2CCCCC2)cc1 (single isomer, unassigned) [Example 41, (+)-(1RS,2RS,5SR)-2-[4-(Cyclohexylmethoxy)benzoyl]-5-{[4-oxo-6-(trifluoromethyl)-1,2,3-benzotriazin-3(4H)-yl]methyl}cyclopentanecarboxylic acid]
IC50 (MMP-2): 97 nM
IC50 (MMP-10): 20 nM
IC50 (mouse MMP-9): 220 nM
IC50 (mouse MMP-2): 180 nM

O=C(O)[C@@H]1[C@@H](Cn2nnc3ccc(C(F)(F)F)cc3c2=O)CC[C@H]1C(=O)c1ccc(OCCC2CCCCC2)cc1 (single isomer, unassigned) [Example 52, (+)-(1RS,2RS,5SR)-2-[4-(2-Cyclohexylethoxy)benzoyl]-5-{[4-oxo-6-(trifluoromethyl)-1,2,3-benzotriazin-3(4H)-yl]methyl}cyclopentanecarboxylic acid]
IC50 (MMP-2): 1600 nM
IC50 (MMP-10): 52 nM
IC50 (mouse MMP-9): 2800 nM
IC50 (mouse MMP-2): 1800 nM

O=C(O)[C@@H]1[C@@H](Cn2nnc3ccc(C(F)(F)F)cc3c2=O)CC[C@H]1C(=O)c1ccc(SCc2ccccc2)cc1 (single isomer, unassigned) [Example 75, (+)-(1RS,2RS,5SR)-2-[4-(Benzylsulphanyl)benzoyl]-5-{[4-oxo-6-(trifluoromethyl)-1,2,3-benzotriazin-3(4H)-yl]methyl}cyclopentanecarboxylic acid]
IC50 (MMP-2): 4200 nM
IC50 (MMP-10): 57 nM
IC50 (mouse MMP-9): 2700 nM
IC50 (mouse MMP-2): 4200 nM

O=C(O)[C@@H]1[C@@H](Cn2nnc3ccc(C(F)(F)F)cc3c2=O)CC[C@H]1C(=O)c1ccc(SCc2cccc(Cl)c2)cc1 (single isomer, unassigned) [Example 77, (+)-(1RS,2RS,5SR)-2-{4-[(3-Chlorobenzyl)sulphanyl]benzoyl}-5-{[4-oxo-6-(trifluoromethyl)-1,2,3-benzotriazin-3(4H)-yl]methyl}cyclopentanecarboxylic acid]
IC50 (MMP-2): 970 nM
IC50 (MMP-10): 30 nM
IC50 (mouse MMP-9): 23000 nM
IC50 (mouse MMP-2): 1400 nM

O=C(O)[C@@H]1[C@@H](Cn2nnc3ccc(C(F)(F)F)cc3c2=O)CC[C@H]1C(=O)c1ccc(SCc2ccc(Cl)c(Cl)c2)cc1 (single isomer, unassigned) [Example 80, (+)-(1RS,2RS,5SR)-2-{4-[(3,4-Dichlorobenzyl)sulphanyl]benzoyl}-5-{[4-oxo-6-(trifluoromethyl)-1,2,3-benzotriazin-3(4H)-yl]methyl}cyclopentanecarboxylic acid]
IC50 (MMP-2): 1400 nM
IC50 (MMP-10): 53 nM
IC50 (mouse MMP-9): > 40000 nM
IC50 (mouse MMP-2): 1500 nM

Cc1ccc2nnn(C[C@H]3CC[C@@H](C(=O)c4ccc(OCc5ccccc5)cc4)[C@@H]3C(=O)O)c(=O)c2c1 (single isomer, unassigned) [Example 92, (+)-(1RS,2RS,5SR)-2-[4-(Benzyloxy)benzoyl]-5-[(6-methyl-4-oxo-1,2,3-benzotriazin-3(4H)-yl)methyl]cyclopentanecarboxylic acid]
IC50 (MMP-2): 47 nM
IC50 (MMP-10): 15 nM
IC50 (mouse MMP-9): 37 nM
IC50 (mouse MMP-2): 57 nM

Cc1cccc(COc2ccc(C(=O)[C@@H]3CC[C@H](Cn4nnc5ccc(C)cc5c4=O)[C@H]3C(=O)O)cc2)c1 (single isomer, unassigned) [Example 98, (+)-(1RS,2RS,5SR)-2-{4-[(3-Methylbenzyl)oxy]benzoyl}-5-[(6-methyl-4-oxo-1,2,3-benzotriazin-3(4H)-yl)methyl]cyclopentanecarboxylic acid]
IC50 (MMP-2): 440 nM
IC50 (MMP-10): 55 nM
IC50 (mouse MMP-9): 460 nM
IC50 (mouse MMP-2): 640 nM

— US20170022171A1, “2,5-DISUBSTITUTED CYCLOPENTANECARBOXYLIC ACIDS AND THEIR USE” (Bayer Pharma Aktiengesellschaft, priority 2014, published 2017)
